Source: patent publication US9969775B2, “CGRP antagonist peptides” (Ferring B.V., priority 2015, dated 2018)
Numbered stars: 1 amine (or outer) side, 2 acyl side, 3 side chain; on linkers, the order of the positions; unused ones are H or OH. Bridge positions count the residues as written; N and C are the ends. Square brackets hold non-standard residues; d marks the D form. Peptide text beside a SMILES is read from it. * marks the point of attachment. Phe(3-CH2NH2) = O=C([C@H](Cc1cccc(CN[*:3])c1)N[*:1])[*:2]; Phe(2-CONH2) = NC(=O)c1ccccc1C[C@H](N)C(=O)O; X5 = O=C([C@H](Cc1ccc(CO)cc1)N[*:1])[*:2]; Triazol3yl(1,2,4-5-NH2) = Nc1nc(*)n[nH]1; X3 = NCc1ccccc1C[C@H](N[*:1])C(=O)[*:2]; Arg(Me) = CNC(=N)NCCC[C@H](N)C(=O)O; Picolinoyl(5-F) = O=C(c1ccc(F)cn1)*; Orn(iPr) = CC(C)NCCC[C@H](N)C(=O)O; Benzoyl(4-F) = O=C(c1ccc(F)cc1)*; Oxazole2carbonyl = O=C(c1ncco1)*; 3Pal = N[C@@H](Cc1cccnc1)C(=O)O; Picolinoyl = O=C(c1ccccn1)*; ΔPro = O=C(O)[C@@H]1C=CCN1; Orn = NCCC[C@H](N)C(=O)O; X2 = Cc1n[nH]c(C(=O)*)n1; X11 = O=C(c1ncccc1Cl)*; X9 = Nc1cccnc1C(=O)*

What was measured:
[1] = target: T1, hAM2 receptor (CALCRL:RAMP3) (Homo sapiens, UniProt O60896+Q16602); experiment: AM2 receptor antagonist activity measured by cAMP assay (HTRF); assay type: cell-based; details: for Emax: % MPE: percent of the maximal possible effect, read-out: hAM2-R Efficacy Antag (%) Ave; for Emax / IC50: agonist human adrenomedullin; for IC50: GeneBLAzer CALCRL:RAMP3-CRE-bla Freestyle 293F cells, read-out: hAM2-R IC50 Ave; for selectivity ratio CGRP/AM2: selectivity ratio for hCGRP over hAM2, calculated from the IC50 values
T1 construct: expressed in transfected cells; host or cells: GeneBLAzer CALCRL:RAMP3-CRE-bla Freestyle 293F

[2] = target: T2, hCGRP receptor (CALCRL:RAMP1) (Homo sapiens, UniProt O60894+Q16602); experiment: CGRP receptor antagonist activity measured by cAMP assay (HTRF); assay type: cell-based; details: agonist human α-CGRP; for Emax: % MPE: percent of the maximal possible effect, read-out: hCGRP-R Efficacy Antag (%) Ave; for IC50: GeneBLAzer CALCRL:RAMP1-CRE-bla Freestyle 293F cells, 30 minutes, read-out: hCGRP-R IC50 Ave
T2 construct: host or cells: GeneBLAzer CALCRL:RAMP1-CRE-bla Freestyle 293F
Protocol: Example 6: CGRP Receptor Antagonist Activity Measured by cAMP Assay
CGRP receptor agonists increase intracellular cyclic adenosine mono-phosphate (cAMP). CGRP receptor antagonists can reduce the agonist effect. Antagonist activity was assessed by measurement of cyclic adenosine mono-phosphate (cAMP) using cell line stably expressing the hCGRP receptor (GeneBLAzer® CALCRL:RAMP1-CRE-bla Freestyle™ 293F, Invitrogen). hCGRP receptor expressing cells were maintained in DMEM high-glucose with GlutaMAX™ containing 10% (v/v) FBS, 0.1 mM NEAA, 25 mM HEPES, 5 ug/ml Blasticidin, 100 ug/ml Hygromycin, and 400 ug/ml Geneticin at 37° C. under 5% CO2 in a humidified atmosphere. For cAMP measurement, cells were washed once with 5 ml 1×PBS, cell maintenance media was replaced with compound buffer ((CB): DMEM containing 0.1% BSA and 0.5 mM IBMX), and flasks were incubated for 1 hour at 37° C. under 5% CO2 in a humidified atmosphere. Cells were removed from culture flasks using non-enzymatic cell dissociation buffer and harvested in CB. The reaction was performed in 384 well white small volume plates (Greiner) at a density of 10,000 cells/well. Cells were exposed to varying concentrations of antagonist compounds for 30 minutes in the presence of a fixed concentration of agonist (human α-CGRP). cAMP levels were measured using an HTRF (homogeneous time resolved fluorescence)-based competitive cAMP immunoassay (cAMP Dynamic 2 Kit, Cisbio), according to the manufacturer's instructions. […] Reported parameters include antagonist potency IC50 (the concentration causing half-maximal inhibition of the agonist response for antagonist compounds) and efficacy (% MPE: percent of the maximal possible effect).

T1 sequence (Q16602 23-461): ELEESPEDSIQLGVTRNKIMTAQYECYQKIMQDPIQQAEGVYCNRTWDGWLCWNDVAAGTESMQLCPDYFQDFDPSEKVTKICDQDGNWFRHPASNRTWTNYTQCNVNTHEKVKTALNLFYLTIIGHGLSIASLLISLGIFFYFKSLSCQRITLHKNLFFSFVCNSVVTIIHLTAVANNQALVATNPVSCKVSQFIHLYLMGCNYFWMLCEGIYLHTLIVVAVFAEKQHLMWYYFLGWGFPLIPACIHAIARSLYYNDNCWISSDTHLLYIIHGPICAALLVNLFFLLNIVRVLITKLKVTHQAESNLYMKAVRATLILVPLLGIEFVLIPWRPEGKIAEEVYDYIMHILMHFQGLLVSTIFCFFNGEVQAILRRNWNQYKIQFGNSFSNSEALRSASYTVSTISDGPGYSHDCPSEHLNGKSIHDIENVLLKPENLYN
T1 sequence (O60896 24-148): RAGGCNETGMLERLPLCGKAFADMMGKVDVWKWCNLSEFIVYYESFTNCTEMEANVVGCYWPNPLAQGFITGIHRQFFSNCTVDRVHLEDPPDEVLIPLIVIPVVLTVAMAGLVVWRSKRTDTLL
T2 sequence (Q16602 23-461): as the sequence (Q16602 23-461) above
T2 sequence (O60894 27-148): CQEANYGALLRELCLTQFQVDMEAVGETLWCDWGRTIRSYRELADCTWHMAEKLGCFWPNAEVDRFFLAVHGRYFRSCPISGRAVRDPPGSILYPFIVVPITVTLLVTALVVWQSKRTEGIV

`CC(C)[C@@H]1NC(=O)[C@H](CC(=O)O)NC(=O)[C@H](CCCN)NC(=O)[C@@H](NC(=O)[C@H](Cc2ccc(O)cc2)NC(=O)[C@H](NC(=O)c2ccc(F)cn2)C(C)C)CSSC[C@@H](C(=O)N[C@@H](Cc2cccnc2)C(N)=O)NC(=O)[C@H](Cc2ccccc2)NC(=O)[C@@H]2CCCN2C(=O)CNC1=O` [Compound 12, Picolinoyl(5-F)-D-Val-Tyr-c(Cys-Orn-Asp-Val-Gly-Pro-Phe-Cys)-3Pal-NH2] ({Picolinoyl(5-F)}-[dV]YC[Orn]DVGPFC[3Pal]-NH2; disulfide 3-10) was tested, and the Emax [1] was 100%, the IC50 [1] was 18 nM and the “selectivity ratio CGRP/AM2” value [1] was 172. For the same compound, the Emax [2] was 100% and the IC50 [2] was 0.11 nM.

`CNC(=N)NCCC[C@@H]1NC(=O)[C@@H](NC(=O)[C@H](Cc2ccc(O)cc2)NC(=O)[C@H](NC(=O)c2ccccn2)C(C)C)CSSC[C@@H](C(=O)N[C@@H](Cc2cccnc2)C(N)=O)NC(=O)[C@H](Cc2ccccc2)NC(=O)[C@@H]2CCCN2C(=O)CNC(=O)[C@H](C(C)C)NC(=O)[C@H](CC(=O)O)NC1=O` [Compound 28, Picolinoyl-D-Val-Tyr-c(Cys-Arg(Me)-Asp-Val-Gly-Pro-Phe-Cys)-3Pal-NH2] (Picolinoyl-[dV]YC[Arg(Me)]DVGPFC[3Pal]-NH2; disulfide 3-10) gave an Emax [1] of 99% and an Emax [2] of 100%.

In the case of `CC(C)[C@@H]1NC(=O)[C@H](CC(=O)O)NC(=O)[C@H](CCCNC(=N)N)NC(=O)[C@@H](NC(=O)[C@H](Cc2ccccc2C(N)=O)NC(=O)[C@H](NC(=O)c2ccc(F)cc2)C(C)C)CSSC[C@@H](C(=O)N[C@@H](Cc2cccnc2)C(N)=O)NC(=O)[C@H](Cc2ccccc2)NC(=O)[C@@H]2CCCN2C(=O)CNC1=O` [Compound 15] ({Benzoyl(4-F)}-[dV][Phe(2-CONH2)]CRDVGPFC[3Pal]-NH2; disulfide 3-10), the Emax [1] is reported as 99%, the IC50 [1] is reported as 58 nM and the “selectivity ratio CGRP/AM2” value [1] is reported as 610. The Emax [2] was 100% and the IC50 [2] was 0.1 nM.

For `CC(C)[C@@H]1NC(=O)[C@H](CC(=O)O)NC(=O)[C@H](CCCNc2nc(N)n[nH]2)NC(=O)[C@@H](NC(=O)[C@H](Cc2ccc(O)cc2)NC(=O)[C@H](NC(=O)c2ccccn2)C(C)C)CSSC[C@@H](C(=O)N[C@@H](Cc2cccnc2)C(N)=O)NC(=O)[C@H](Cc2ccccc2)NC(=O)[C@@H]2CCCN2C(=O)CNC1=O` [Compound 27, Picolinoyl-D-Val-Tyr-c(Cys-Orn(Atz)-Asp-Val-Gly-Pro-Phe-Cys)-3Pal-NH2] (Picolinoyl-[dV]YC[Orn](Triazol3yl(1,2,4-5-NH2))DVGPFC[3Pal]-NH2; disulfide 3-10), the Emax [1] was 98%, the IC50 [1] was 119 nM and the “selectivity ratio CGRP/AM2” value [1] was 765. For the same compound, the Emax [2] was 100% and the IC50 [2] was 0.15 nM.

In the case of `CC(C)[C@@H]1NC(=O)[C@H](CC(=O)O)NC(=O)[C@H](CCCNC(=N)N)NC(=O)[C@@H](NC(=O)[C@H](Cc2ccc(O)cc2)NC(=O)[C@H](NC(=O)c2ncccc2Cl)C(C)C)CSSC[C@@H](C(=O)N[C@@H](Cc2cccnc2)C(N)=O)NC(=O)[C@H](Cc2ccccc2)NC(=O)[C@@H]2CCCN2C(=O)CNC1=O` [Compound 51] (X11-[dV]YCRDVGPFC[3Pal]-NH2; disulfide 3-10), the Emax [1] is reported as 100%, the IC50 [1] is reported as 13 nM and the “selectivity ratio CGRP/AM2” value [1] is reported as 92. For the same compound, the Emax [2] was 100% and the IC50 [2] was 0.14 nM.

`CC(C)[C@@H]1NC(=O)[C@H](CC(=O)O)NC(=O)[C@H](CCCNC(=N)N)NC(=O)[C@@H](NC(=O)[C@H](Cc2ccc(O)cc2)NC(=O)[C@H](NC(=O)c2ncco2)C(C)C)CSSC[C@@H](C(=O)N[C@@H](Cc2cccnc2)C(N)=O)NC(=O)[C@H](Cc2cccnc2)NC(=O)[C@@H]2CCCN2C(=O)CNC1=O` [Compound 11, Oxazole-2-carbonyl-D-Val-Tyr-c(Cys-Arg-Asp-Val-Gly-Pro-3Pal-Cys)-3Pal-NH2] (Oxazole2carbonyl-[dV]YCRDVGP[3Pal]C[3Pal]-NH2; disulfide 3-10) was tested, and the Emax [1] was 108%, the IC50 [1] was 25 nM and the “selectivity ratio CGRP/AM2” value [1] was 198. For the same compound, the Emax [2] was 100% and the IC50 [2] was 0.13 nM.

For `CC(C)NCCC[C@@H]1NC(=O)[C@@H](NC(=O)[C@H](Cc2ccccc2C(N)=O)NC(=O)[C@H](NC(=O)c2ccc(F)cn2)C(C)C)CSSC[C@@H](C(=O)N[C@@H](Cc2cccnc2)C(N)=O)NC(=O)[C@H](Cc2ccc(CO)cc2)NC(=O)[C@@H]2C=CCN2C(=O)CNC(=O)[C@H](C(C)C)NC(=O)[C@H](CC(=O)O)NC1=O` [Compound 63, Picolinoyl(5-F)-D-Val-Phe(2-Cbm)-c(Cys-Orn(iPr)-Asp-Val-Gly-Dhp-Phe(4-CH2OH)-Cys)-3Pal-NH2] ({Picolinoyl(5-F)}-[dV][Phe(2-CONH2)]C[Orn(iPr)]DVG[ΔPro][X5]C[3Pal]-NH2; disulfide 3-10), the Emax [1] was 98%, the IC50 [1] was 85 nM and the “selectivity ratio CGRP/AM2” value [1] was 848. The Emax [2] was 101% and the IC50 [2] was 0.1 nM.

For `Cc1n[nH]c(C(=O)N[C@@H](C(=O)N[C@@H](Cc2ccc(O)cc2)C(=O)N[C@H]2CSSC[C@@H](C(=O)N[C@@H](Cc3cccnc3)C(N)=O)NC(=O)[C@H](Cc3ccccc3CN)NC(=O)[C@@H]3CCCN3C(=O)CNC(=O)[C@H](C(C)C)NC(=O)[C@H](CC(=O)O)NC(=O)[C@H](CCCNC(=N)N)NC2=O)C(C)C)n1` [Compound 53, 1H-1,2,4-triazole-5-carbonyl(3-Me)-D-Val-Tyr-c(Cys-Arg-Asp-Val-Gly-Pro-Phe(2-CH2NH2)-Cys)-3Pal-NH2] (X2-[dV]YCRDVGP[X3]C[3Pal]-NH2; disulfide 3-10), the Emax [1] was 98%, the IC50 [1] was 901 nM and the “selectivity ratio CGRP/AM2” value [1] was 8130. It also gave an Emax [2] of 100% and an IC50 [2] of 0.11 nM.

For `Cc1n[nH]c(C(=O)N[C@@H](C(=O)N[C@@H](Cc2ccc(O)cc2)C(=O)N[C@H]2CSSC[C@@H](C(=O)N[C@@H](Cc3cccnc3)C(N)=O)NC(=O)[C@H](Cc3ccccc3)NC(=O)[C@@H]3CCCN3C(=O)CNC(=O)[C@H](C(C)C)NC(=O)[C@H](CC(=O)O)NC(=O)[C@H](CCCNC(=N)N)NC2=O)C(C)C)n1` [Compound 48] (X2-[dV]YCRDVGPFC[3Pal]-NH2; disulfide 3-10), the Emax [1] was 96%, the IC50 [1] was 402 nM and the “selectivity ratio CGRP/AM2” value [1] was 5610. For the same compound, the Emax [2] was 100% and the IC50 [2] was 0.07 nM.

In the case of `CC(C)[C@@H]1NC(=O)[C@H](CC(=O)O)NC(=O)[C@H](CCCNC(=N)N)NC(=O)[C@@H](NC(=O)[C@H](Cc2ccc(O)cc2)NC(=O)[C@H](NC(=O)c2ccc(F)cc2)C(C)C)CSSC[C@@H](C(=O)N[C@@H](Cc2cccnc2)C(N)=O)NC(=O)[C@H](Cc2cccc(CN)c2)NC(=O)[C@@H]2CCCN2C(=O)CNC1=O` [Compound 5, Bz(4-F)-D-Val-Tyr-c(Cys-Arg-Asp-Val-Gly-Pro-Phe(3-CH2NH2)-Cys)-3Pal-NH2] ({Benzoyl(4-F)}-[dV]YCRDVGP[Phe(3-CH2NH2)]C[3Pal]-NH2; disulfide 3-10), the Emax [1] is reported as 99%, the IC50 [1] is reported as 26 nM and the “selectivity ratio CGRP/AM2” value [1] is reported as 192. For the same compound, the Emax [2] was 100% and the IC50 [2] was 0.13 nM.

With `CC(C)[C@@H]1NC(=O)[C@H](CC(=O)O)NC(=O)[C@H](CCCNC(=N)N)NC(=O)[C@@H](NC(=O)[C@H](Cc2ccc(O)cc2)NC(=O)[C@H](NC(=O)c2ncccc2N)C(C)C)CSSC[C@@H](C(=O)N[C@@H](Cc2cccnc2)C(N)=O)NC(=O)[C@H](Cc2ccccc2)NC(=O)[C@@H]2CCCN2C(=O)CNC1=O` [Compound 36] (X9-[dV]YCRDVGPFC[3Pal]-NH2; disulfide 3-10) the Emax [1] was 101%, the IC50 [1] was 16 nM and the “selectivity ratio CGRP/AM2” value [1] was 93. For the same compound, the Emax [2] was 100% and the IC50 [2] was 0.17 nM.
